The source of these data is patent publication US20060222628A1, “Gallium complexes of 3-hydroxy-4-pyrones to treat infection by intracellular prokaryotes and DNA viruses” (priority 1999, published 2006).

The structures appear in SMILES notation.

The subject of one series is HIV. The series is described as follows: Clinical evaluation for prevention of CMV disease in HIV patients: HIV. To be noted: CMV prevention study; MacSynergy II. The series is classed as in vivo.
For series [1] the following is noted: in vivo. The source says: Gallium is absorbed very poorly when orally administered as salts such as the chloride or nitrate (Collery et al. (1989), “Clinical pharmacology of gallium chloride after oral administration in lung cancer patients,” Anticancer Res. 9:353-356; Ho et al. […] J.
Series [2] is classed as physicochemical. How it is done:
The material forms white to pale beige monoclinic crystals with unit cell parameters of about a=7.899(1)Å, b=8.765(1)Å, c=31.626(2)Å, beta=103.253(7) degrees, V=2131 Å^3, based on powder x-ray diffraction analysis. The solubility of this compound is measured as about 5 millimolar in distilled deionized water at 23° C. Crystallization from other solvents or under other conditions may produce other crystal structures. Under some conditions, water or other solvents may also be incorporated into the structure. […] About 5.5 grams of powdered anhydrous sodium carbonate are added, and stirring continues for additional 12 minutes. […] The remaining crystalline solid is the 3:1 maltol gallium composition. […] The solubility of this composition is measured as about 24 millimolar in distilled deionized water at 23° C.

The conditions of series [3]: in vivo, po; cited from earlier work.
The next series has as its system CMV. The series is described as follows: Clinical evaluation for prevention of CMV disease in HIV patients: CMV. The series is classed as in vivo, human. The text has this: In this example, prevention of CMV disease rather than its treatment will be studied. Chemo-prevention by antivirals is preferred, rather than with immune stimulating agents such as interferons, because interferons require regular administration by injection. Foscarnet is an antiviral only for injection, but it is studied for comparison with oral antivirals. […] In addition to the methods used in Example 5 for evaluating the HIV disease, some of the methods employed in the following reference are used in the evaluation: Monkemuller et al. (2000), “Esophageal ulcer caused by cytomegalovirus: resolution during combination antiretroviral therapy for acquired immunodeficiency syndrome,” South Med. J. 93(8):8 18-20. Patients are treated once per day with gelatin capsules containing gallium maltolate. The population of patients with CMV (almost universal, seropositive or culture positive patients) and HIV infection are first divided into two subpopulations groups based on CD4+ counts (above 350/mm^3 and below 350/mm^3). The subpopulations are randomly and blindly divided into two groups each randomly subdivided into subgroups for a total of sixteen approximately equal subgroups that receive either 0 (placebo), 250, 500, or 750 mg/day gallium maltolate for about six months. All subgroups receive the identical regimen of non-gallium antiretroviral therapy as described in Example 5 (a HAART regime). The commonly used nucleoside analog for CMV is ganciclovir, with foscavir used in cases where ganciclovir is ineffective, and the combination used to treat refractory CMV retinitis and other conditions. Foscarnet must be infused slowly to avoid adverse reactions. […] Patients are monitored for HIV disease precisely as described in Example 5. Patients are also medically monitored for CMV disease, including testing and examination for medical symptoms of CMV disease, such as CMV retinitis, throughout the study. […]

A further series concerns Epstein-Barr Virus (EBV). Briefly: Clinical evaluation for Epstein-Barr virus (EBV) infection. The series is classed as in vivo, human. How it is done:
Some of the methods employed in the clinical studies discussed in the following references are used in the evaluation: Schneider et al. (2000), “Regression of Epstein-Barr virus-associated lymphoproliferative disorders in patients with acquired immunodeficiency syndrome during therapy with foscarnet,” Ann. Hematol. 79(4):214-6. Patients with EBV infection are treated once per day with gelatin capsules containing gallium maltolate. The patients are divided randomly and blindly into two approximately equal groups with four approximately equal subgroups that receive either 0 (placebo), 250, 500, or 750 mg/day gallium maltolate for about six months. The first group receive the gallium maltolate dose together with 500 mg ganciclovir twice per day. The second group receive the gallium maltolate dose together with 5500 mg foscarnet, IV infusion over 1.5-2 hr., twice per day. Patients are medically monitored for resolution of EBV infection, with histopathologic examination of hematologic smears to assess characteristic cells an lymphocyte levels. In addition blood serum samples are obtained from the patients at days 1, 3, 7, 10, 14, 17, 21, 24 and 28 and are assayed for EBV particles by routine methods and for EBV DNA (viral load assay) using PCR.

As to `Cc1occc(=O)c1[O-].Cc1occc(=O)c1[O-].Cc1occc(=O)c1[O-].[Ga+3]` [gallium maltolate, tris(3-hydroxy-2-methyl-4H-pyran-4-onato)gallium], in the series on HIV, the “Synergy with the HAART regime on HIV infection” value is reported as “synergistic with the HAART regime in their effects upon the HIV infection”. In addition, the “Oral gallium absorption relative to gallium salts” value in series [1] is given as “roughly ten times higher than from gallium salts”. Also, in series [2], the Solubility entry was “about 24 millimolar”. Moreover, the Renotoxicity or nephrotoxicity result in series [3] was “no renotoxicity or nephrotoxicity has been observed”. In the series with CMV (HIV patients on HAART, with foscarnet or ganciclovir), the “Efficacy in preventing CMV disease in combination” value was “effective in combination with either foscarnet or ganciclovir”. Further, in the series with CMV (gallium plus ganciclovir versus placebo plus ganciclovir), the “Prevention of CMV disease with only oral agents” value is “adequate and effecting better results than placebo plus ganciclovir”. Besides, the “Synergy in preventing CMV disease” value in the series on CMV (with foscarnet or ganciclovir) was “synergistic with both”. Further, in the series with Epstein-Barr Virus (EBV) (EBV), the “Efficacy of combination with ganciclovir or foscarnet versus single agents” value is on record as “more effective than either agent alone”. For the same compound, the “Synergy with nucleoside analogs” value in the series on Epstein-Barr Virus (EBV) (EBV, MacSynergy II) was “synergy of gallium with both nucleoside analogs is also demonstrated”. In addition, the “Efficacy in treating EBV infection” value in the series on Epstein-Barr Virus (EBV) (HIV negative patients, 250-750 mg/day oral with ganciclovir or foscarnet) is “effective for treating EBV infection, including recurrent sores as well as more serious systemic disease”.
